From paper PMC6522524 (Nature Communications, 2019)
Several values for one entry are separate records, joined by “and”; a condition that tells them apart may be missing. Equal values may be shown once. Read-outs that look alike come from different tables or passages of the source.

Key:
[1] = molecular target: T1, Cp149 (truncated HBV core protein) (Hepatitis B virus genotype D subtype ayw, UniProt P03146); assay: biochemical; settings: for Relative intensity, anti core-native gel, individual samples: Sample1-2; for HBV capsid assembly inhibitory activity in vitro (Supplementary Fig. 8): Cp149
T1 construct: Cp149 (amino acids 1–149) is a truncated form of the HBV core protein; made in house; host or cells: Escherichia coli
T1 sequence (P03146 1-149): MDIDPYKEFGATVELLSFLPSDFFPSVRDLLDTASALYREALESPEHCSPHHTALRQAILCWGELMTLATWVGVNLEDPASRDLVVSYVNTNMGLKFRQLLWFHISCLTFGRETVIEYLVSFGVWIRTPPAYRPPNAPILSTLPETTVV

[2] = molecular target: HBV core protein (pCDNA3-Core, Y118 wild-type) in Huh-7 cells (Hepatitis B virus genotype C, UniProt P0C6H6); assay: cell-based; format: cell-based; settings: for activity at 0.1 µM: Huh-7, Y118, 0.1 μM; for activity at 0.5 µM: Huh-7, Y118, 0.5 μM; for activity at 1 µM: Huh-7, Y118, 1 μM; for activity at 5 µM: Huh-7, Y118, 5 μM; for activity at 10 µM: Huh-7, Y118, 10 μM; for HBV capsid assembly inhibitory activity in vivo (Fig. 3d): Huh-7, pCDNA3-Core
Chain of HBV core protein (pCDNA3-Core, Y118 wild-type) in Huh-7 cells (P0C6H6 whole entry): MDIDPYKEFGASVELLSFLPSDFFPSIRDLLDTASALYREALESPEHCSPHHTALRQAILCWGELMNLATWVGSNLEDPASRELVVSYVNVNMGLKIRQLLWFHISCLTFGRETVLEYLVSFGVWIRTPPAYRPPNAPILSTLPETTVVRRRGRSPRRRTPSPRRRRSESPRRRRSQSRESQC

[3] = tested on: total HBV core protein in Huh-7 cells; format: cell-based, Hepatitis B virus; settings: treatment time increased
Protocol: the indicated times. The cells were lysed and assembled HBV core particles were isolated by sucrose step-gradient ultracentrifugation, resolved on 1 % agarose gels, and subjected to immunoblot analysis with anti-HBV core antibody. Total intracellular HBV core protein was also determined by immunoblot analysis in the cell lysates. Core mRNA levels were measured by quantitative RT-PCR. The data

[4] = Sample1-3, read-out: Relative intensity (Folds), intracellular capsid, individual samples
[5] = read-out: Relative intensity (Folds), intracellular capsid, AVERAGE
[6] = Y118, 0.1 μM, Sample1-3, 0.1 µM
[7] = Y118, 0.5 μM, Sample1-3, 0.5 µM

Row | Molecule | Relative intensity, anti core-native gel, AVERAGE ([1]; Drug Concentration 0.1 μM) | Relative intensity, anti core-native gel, individual samples ([1]; Drug Concentration 0.1 μM) | Relative intensity, anti core-native gel, AVERAGE ([1]; Drug Concentration 0.2 μM) | Relative intensity, anti core-native gel, individual samples ([1]; Drug Concentration 0.2 μM) | Relative intensity, anti core-native gel, AVERAGE ([1]; Drug Concentration 0.5 μM) | Relative intensity, anti core-native gel, individual samples ([1]; Drug Concentration 0.5 μM) | Relative intensity, anti core-native gel, AVERAGE ([1]; Drug Concentration 1 μM) | Relative intensity, anti core-native gel, individual samples ([1]; Drug Concentration 1 μM) | Relative intensity, anti core-native gel, AVERAGE ([1]; Drug Concentration 2 μM) | Relative intensity, anti core-native gel, individual samples ([1]; Drug Concentration 2 μM) | Relative intensity, anti core-native gel, AVERAGE ([1]; Drug Concentration 5 μM) | Relative intensity, anti core-native gel, individual samples ([1]; Drug Concentration 5 μM) | Relative intensity, anti core-native gel, AVERAGE ([1]; Drug Concentration 10 μM) | Relative intensity, anti core-native gel, individual samples ([1]; Drug Concentration 10 μM) | HBV capsid assembly inhibitory activity in vitro (Supplementary Fig. 8) [1] | activity at 0.1 µM [2, 4] [%] | activity at 0.1 µM [2, 5] [%] | activity at 0.5 µM [2, 5] [%] | activity at 1 µM [2, 4] [%] | activity at 1 µM [2, 5] [%] | other results
1 | CC1(CC(=O)O)CC(C2CCCCC2)=NO1 (racemic) [(RS)-2-(3-cyclohexyl-5-methyl-4,5-dihydroisoxazol-5-yl)acetic Acid] | 0.9301 | 1.019 and 0.8411 | 1.003 | 1.033 and 0.9731 | 0.9877 | 0.9703 and 1.005 | 0.9712 | 1.074 and 0.8679 | 0.9867 | 1.072 and 0.9014 | 0.9809 | 1.098 and 0.8634 | 1.051 | 1.175 and 0.9277 |  |  |  |  |  |  | 
2 | Cc1cc(C2CCCCC2)[nH]c(=O)c1 [Compound 2, 6-Cyclohexyl-4-methyl pyridin-2(1H)-one] | 0.9832 | 0.9055 and 1.061 | 1.01 | 0.8978 and 1.1231 | 0.9545 | 0.9595 and 0.9494 | 0.9058 | 0.865 and 0.9466 | 0.9815 | 0.9391 and 1.024 | 0.9702 | 0.8581 and 1.082 | 0.8707 | 0.8904 and 0.851 | blocked its HBV capsid assembly inhibitory activity | 94 | 96.2 | 98.6 | 90.2 | 101 | activity at 0.5 µM [2, 4]: 96.4%; activity at 5 µM [2, 4]: 85.6%; activity at 5 µM [2, 5]: 95.8%; activity at 10 µM [2, 4]: 87.2%; activity at 10 µM [2, 5]: 99.5%; HBV capsid assembly inhibitory activity in vivo (Fig. 3d) [2]: blocked its HBV capsid assembly inhibitory activity; Relative intensity (Folds), intracellular capsid, individual samples [2, 6]: 1.008 Folds and 0.9391 Folds; Relative intensity (Folds), intracellular capsid, individual samples [2, 7]: 1.032 Folds and 0.9631 Folds; Relative intensity (Folds), intracellular capsid, individual samples ([2]; Y118, 1 μM, Sample1-3, 1 µM): 1.06 Folds and 1.081 Folds; Relative intensity (Folds), intracellular capsid, individual samples ([2]; Y118, 5 μM, Sample1-3, 5 µM): 1.004 Folds and 1.015 Folds; Relative intensity (Folds), intracellular capsid, individual samples ([2]; Y118, 10 μM, Sample1-3, 10 µM): 1.04 Folds and 1.071 Folds
3 | Cc1cc(C2CCCCC2)oc(=O)c1 [Compound 3, 6-Cyclohexyl-4-methyl-2–pyrone] | 0.9537 |  | 0.9345 |  | 0.8949 |  | 0.9182 |  | 0.8055 |  | 0.9044 |  | 1.014 |  | blocked its HBV capsid assembly inhibitory activity | 109 | 119 | 113 | 103 | 106 | Relative intensity, anti core-native gel, individual samples ([1]; Drug Concentration 0.1 μM, listed as 6-Cycloxexyl-4-methyl-2-pyrone): 0.8748 and 1.033; Relative intensity, anti core-native gel, individual samples ([1]; Drug Concentration 0.2 μM, listed as 6-Cycloxexyl-4-methyl-2-pyrone): 0.9048 and 0.9643; Relative intensity, anti core-native gel, individual samples ([1]; Drug Concentration 0.5 μM, listed as 6-Cycloxexyl-4-methyl-2-pyrone): 0.8127 and 0.9771; Relative intensity, anti core-native gel, individual samples ([1]; Drug Concentration 1 μM, listed as 6-Cycloxexyl-4-methyl-2-pyrone): 0.8468 and 0.9896; Relative intensity, anti core-native gel, individual samples ([1]; Drug Concentration 2 μM, listed as 6-Cycloxexyl-4-methyl-2-pyrone): 0.798 and 0.8131; Relative intensity, anti core-native gel, individual samples ([1]; Drug Concentration 5 μM, listed as 6-Cycloxexyl-4-methyl-2-pyrone): 0.8531 and 0.9558; Relative intensity, anti core-native gel, individual samples ([1]; Drug Concentration 10 μM, listed as 6-Cycloxexyl-4-methyl-2-pyrone): 0.9919 and 1.036; activity at 5 µM [2, 4]: 110%; activity at 5 µM [2, 5]: 115%; activity at 10 µM [2, 5]: 115%; HBV capsid assembly inhibitory activity in vivo (Fig. 3d) [2]: blocked its HBV capsid assembly inhibitory activity; Relative intensity (Folds), intracellular capsid, individual samples [2, 6]: 1.2405 Folds and 1.2516 Folds; Relative intensity (Folds), intracellular capsid, individual samples [2, 7]: 0.9808 Folds and 1.196 Folds and 1.214 Folds; Relative intensity (Folds), intracellular capsid, individual samples ([2]; Y118, 1 μM, Sample1-3, 1 µM): 1.107 Folds and 1.042 Folds; Relative intensity (Folds), intracellular capsid, individual samples ([2]; Y118, 5 μM, Sample1-3, 5 µM): 1.192 Folds and 1.143 Folds; Relative intensity (Folds), intracellular capsid, individual samples ([2]; Y118, 10 μM, Sample1-3, 10 µM): 0.9807 Folds and 1.199 Folds and 1.28 Folds
4 | Bay41–4109 |  |  |  |  |  |  |  |  |  |  |  |  |  |  |  |  |  |  |  |  | total core protein [3]: decreased
